Patent publication US20060099216A1, “Peptide delivery” (Biovation Limited, priority 1994, published 2006)

Tested on: mouse Sp2/0 cells
Experiment: CTL assay: 51Cr release from target Sp2/0 cells treated with antibody fragments or peptide, with p53 peptide-specific CTLs
Assay type: cell-based
Details: Sp2/0 target cells, treated 4 hours at 37° C. with antibody fragment dilutions or 10 μg/ml peptide

## KYICNSSCM (p53 CTL reactive peptide) [p53 peptide only]
effector:target 5:1
  % Specific 51Cr Release at E/T Ratio 5:1: 41%
effector:target 10:1
  % Specific 51Cr Release at E/T Ratio 10:1: 57%
effector:target 20:1
  % Specific 51Cr Release at E/T Ratio 20:1: 46%
